# Experimental data: patent publication US10550150B2, “Short-chain peptides as Kappa (κ) opioid receptors (KOR) agonist” (CADILA HEALTHCARE LIMITED, priority 2015, dated 2020)
# Where two headings read alike, the source gives them in different places. *1 amine or outer side, *2 acyl side, *3 side chain or, on linkers, in order; H or OH if unused. Where a SMILES comes first, the peptide text is derived from it. [ ]: non-standard residue; d: D form. The star is where a group is joined. X26 = O=C(CN1CC2CC(C1)N2*)OCc1ccccc1; X9 = O=C(CN1CC2CC(C1)N2[*:1])[*:2]; X28 = O=C(O)CCN(CCC(=O)O)*; X4 = O=C(O)CN1CC2CC(C1)N2*; Ac6c = NC1(C(=O)O)CCCCC1; Ac5c = NC1(C(=O)O)CCCC1; X10 = OCCN(CCO)*
# Legend:
# [1] = target: T1, Kappa (κ) opioid receptors (KOR) (Homo sapiens, UniProt P41145); test: In vitro KOR agonistic activity, cAMP based functional assay; assay type: cell-based
# T1 construct: host or cells: unnamed cells grown in Ham's F-12 medium
# Protocol: a) In Vitro (EC50) Determination, Using cAMP Based Functional Assay:
# In vitro, KOR agonistic activity of test compounds were assessed using cAMP based functional assay. A 96-well plate was seeded at the density of 30,000 cells/well in 100 μl/well of complete Ham's F-12 medium. After seeding, the plates were incubated overnight at 37° C., 5% CO2, in CO2 Incubator. Overnight medium was discarded and plate washed with 100 μl/well of sterile PBS. Then 90 μl of 0.1 mM IBMX containing 0.5% Fatty acid free BSA in plain HamsF12 was added to each well. This was allowed to incubate for 30 minutes at 37° C., 5% CO2. Forskolin 20 μM in 0.5% Fatty acid free BSA was added to each well and allowed to incubate at room temperature for 5 minutes. Dilution of test compounds was made at 200× in DMSO and then diluted 1:10 times in BSA containing plain HamsF12. Agonist (test compounds, in 10% DMSO) was added to each well (5 μl) and allowed to incubate for 20 minutes at 37° C., 5% CO2. After 20 minutes, media was aspirated from the wells and the wells were washed with 1×PBS. Cell lysis buffer 4× (Arbor Assays, Cat # X074-60 ML) was diluted 1:4 in MilliQ and 90 μl of this buffer was added per well. Cells were allowed to shake at 500 rpm, room temperature for 20 minutes. Cell lysate was collected in 1.5 ml eppendorf tubes and centrifuged at 13.2 k rpm, 4° C. for 15 minutes. 50 μl of the supernatant of cell lysate was then used for cAMP estimation by cAMP direct ELISA kit (Arbor Assays, Cat # K019-H5).
# [2] = system: acetic acid induced writhing; test: Acetic acid-induced writhing model (antinociceptive activity); assay type: in vivo; settings: acetic acid induced pain model, ICR mice (n = 6), iv
# Protocol: In Vivo (ED50) Determination, Using Acetic Acid-Induced Writhing Model
# The acetic acid induced writhing assay can detect antinociceptive activity for opioid drug, acting at peripheral, spinal and supraspinal levels. Animals were fasted 12 to 16 h prior testing. The nociceptive response (abdominal contractions or writhes) was induced by diluted acetic acid (0.6%, 10 ml/kg, for mice and 2.5%, 0.5 ml/rat) administered intraperitoneally (i.p.) at time 0 min.
# In mouse experiments, compounds were administered orally, intravenously (i.v.) or subcutaneously (s.c.). To determine the antinociceptive potency and efficacy, full dose-response curves were constructed with test compounds, given 5 min prior to acetic acid administration. The duration of action was determined by using increasing pretreatment time (5, 60, and 120 min.), prior to acetic acid administration, for a sub-maximally effective dose defined during the dose-response curve study. In rat experiments, compounds were administered orally, intravenously (i.v.) or subcutaneously (s.c.), 15 min prior to acetic acid administration. The number of writhes was counted over the 15 min period following acetic acid administration. A writhe is defined as a constriction of the abdominal area, often with extension of the hind legs. Percentage maximum possible effect (MPE) was calculated as: % MPE=100−[(No. of writhes in test compound treated animal/No. of writhes in vehicle treated animal)]×100. ED50 dose was determined using GraphPad Prism.
# [3] = cAMP based functional assay, forskolin stimulated, read-out: In-vitro EC50
# [4] = refers to Table-4, read-out: in vitro KOR agonistic activity EC50
# T1 sequence (P41145 whole entry): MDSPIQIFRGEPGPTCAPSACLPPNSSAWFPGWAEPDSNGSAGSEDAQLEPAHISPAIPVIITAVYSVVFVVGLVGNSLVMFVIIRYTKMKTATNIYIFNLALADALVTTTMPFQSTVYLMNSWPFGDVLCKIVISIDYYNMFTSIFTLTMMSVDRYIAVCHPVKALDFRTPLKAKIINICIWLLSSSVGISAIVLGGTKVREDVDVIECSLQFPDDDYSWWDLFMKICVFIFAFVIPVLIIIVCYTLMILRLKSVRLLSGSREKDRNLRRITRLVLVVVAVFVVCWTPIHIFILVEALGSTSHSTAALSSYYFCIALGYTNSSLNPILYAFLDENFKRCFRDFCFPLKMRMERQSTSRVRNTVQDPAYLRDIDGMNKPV
SMILES,"EC50 [1, 3]","EC50 [1, 4]",In-vivo ED50 [2]
CCOC(=O)CN1CC2CN(C(=O)C(CCCCN)NC(=O)C(CC(C)C)NC(=O)C(Cc3ccccc3)NC(=O)C(N)Cc3ccccc3)CC2C1 (centres unmarked) [Compound 15],0.007 nM,< 0.1 nM,0.1 mpk
CC(C)CC(NC(=O)C(Cc1ccccc1)NC(=O)C(N)Cc1ccccc1)C(=O)NC(CCCCN)C(=O)N1C2CC1CN(CC(=O)N(CCO)CCO)C2 (centres unmarked) [Compound 101] (H-FFLK[X9]-X10; configuration not given here),0.012 nM,,
CC(C)CC(NC(=O)C(Cc1ccccc1)NC(=O)C(N)Cc1ccccc1)C(=O)NC(CCCCN)C(=O)N1CC2CC(=O)CC2C1 (centres unmarked) [Compound 23],0.085 nM,,
CC(C)CC(NC(=O)C(Cc1ccccc1)NC(=O)C(N)Cc1ccccc1)C(=O)NC(CCCCN)C(=O)N1C2CCC1CC(O)C2 (centres unmarked) [Compound 105],0.002 nM,,
CC(C)CC(NC(=O)C(Cc1ccccc1)NC(=O)C(N)Cc1ccccc1)C(=O)NC(CCCCN)C(=O)N1CC2CC1CN2Cc1ccccc1 (centres unmarked) [Compound 62],,,0.31 mpk
CC(C)CC(NC(=O)C(Cc1ccccc1)NC(=O)C(N)Cc1ccc(O)cc1)C(=O)NC(CCCCN)C(=O)N1C2CC1CN(CC(=O)O)C2 (centres unmarked) [Compound 90] (H-YFLK-X4; configuration not given here),,,0.98 mpk
CC(C)CC(NC(=O)C(Cc1ccccc1)NC(=O)C(N)Cc1ccccc1)C(=O)NC(CCCCN)C(=O)N1C2CC1CN(CC(=O)O)C2 (centres unmarked) [Compound 36],0.015 nM,< 0.1 nM,0.04 mpk
CC(C)CC(NC(=O)C(Cc1ccccc1)NC(=O)C(N)Cc1ccccc1)C(=O)NC(CCCCN)C(=O)N1CC2CN(S(C)(=O)=O)CC2C1 (centres unmarked) [Compound 19],,,0.28 mpk
CC(C)CC(NC(=O)C(Cc1ccccc1)NC(=O)C(N)Cc1ccccc1)C(=O)NC(CCCCN)C(=O)N1CC2CC(CN)CC2C1 (centres unmarked) [Compound 26],0.22 nM,,
CC(C)CC(NC(=O)C(Cc1ccccc1)NC(=O)C(N)Cc1ccccc1)C(=O)NC(CCCCN)C(=O)N1C2CC1CN(CCO)C2 (centres unmarked) [Compound 38],,,0.04 mpk
CC(C)CC(NC(=O)C(Cc1ccccc1)NC(=O)C(N)Cc1ccccc1)C(=O)NC(CCCCN)C(=O)N1C2CC1CN(CC(=O)N(CCC(=O)O)CCC(=O)O)C2 (centres unmarked) [Compound 100] (H-FFLK[X9]-X28; configuration not given here),0.015 nM,,
CC(C)CC(NC(=O)C(Cc1ccccc1)NC(=O)C(N)Cc1ccccc1)C(=O)NC(CCCCN)C(=O)N1CC2=C(CN(CC(=O)O)C2)C1 (centres unmarked) [Compound 4],0.047 nM,< 0.1 nM,
CC(C)CC(NC(=O)C(Cc1ccccc1)NC(=O)C(N)Cc1ccccc1)C(=O)NC(CCCCN)C(=O)N1C2CC1CN(C(=O)C(N)CO)C2 (centres unmarked) [Compound 97],,,0.42 mpk
CC(C)CC(NC(=O)C(Cc1ccccc1)NC(=O)C(N)Cc1ccccc1)C(=O)NC(CCCCN)C(=O)N1C2CC1CN(S(C)(=O)=O)C2 (centres unmarked) [Compound 39],,,0.18 mpk
CC(C)CC(NC(=O)C(Cc1ccccc1)NC(=O)C(N)Cc1ccccc1)C(=O)NC(CCCCN)C(=O)N1C2CC1CN(C(=O)CCCCCN)C2 (centres unmarked) [Compound 93],,,0.11 mpk
NCCCCC(NC(=O)C1(NC(=O)C(Cc2ccccc2)NC(=O)C(N)Cc2ccc(O)cc2)CCCCC1)C(=O)N1C2CC1CN(CC(=O)O)C2 (centres unmarked) [Compound 92] (H-YF[Ac6c]K-X4; configuration not given here),0.018 nM,,
"CC(C)CC(NC(=O)C(Cc1ccccc1)NC(=O)C(N)Cc1ccccc1)C(=O)NC(CCCCN)C(=O)N1C2CC1CN(Cc1ccccc1)C2 (centres unmarked) [Compound 34, N-(6-amino-1-(3-benzyl-3,6-diazabicyclo[3.1.1]heptan-6-yl)-1-oxohexan-2-yl)-2-(2-(2-amino-3-phenylpropanamido)-3-phenylpropanamido)-4-methylpentanamide]",0.088 nM,,
CCOC(=O)C1CC2CN(C(=O)C(CCCCN)NC(=O)C(CC(C)C)NC(=O)C(Cc3ccccc3)NC(=O)C(N)Cc3ccccc3)CC2C1 (centres unmarked) [Compound 27],0.009 nM,,

SMILES,"EC50 [1, 3]","EC50 [1, 4]",In-vivo ED50 [2]
CC(C)CC(NC(=O)C(Cc1ccccc1)NC(=O)C(N)Cc1ccccc1)C(=O)NC(CCCCN)C(=O)N1CC2CN(CCO)CC2C1 (centres unmarked) [Compound 18],,,1 mpk
CC(C)CC(NC(=O)C(Cc1ccccc1)NC(=O)C(N)Cc1ccccc1)C(=O)NC(CCCCN)C(=O)N1C2CC1CN(CC(=O)OCc1ccccc1)C2 (centres unmarked) [Compound 49],0.016 nM,,
CC(C)CC(NC(=O)C(Cc1ccccc1)NC(=O)C(N)Cc1ccccc1)C(=O)NC(CCCCN)C(=O)N1CC2CC(C1)N2 (centres unmarked) [Compound 51],0.012 nM,,
CC(C)CC(NC(=O)C(Cc1ccccc1)NC(=O)C(N)Cc1ccccc1)C(=O)NC(CCCCN)C(=O)N1CC2=C(CN(CC(N)=O)C2)C1 (centres unmarked) [Compound 5],0.009 nM,< 0.1 nM,0.07 mpk
NCCCCC(NC(=O)C1(NC(=O)C(Cc2ccccc2)NC(=O)C(N)Cc2ccccc2)CCCCC1)C(=O)N1C2CC1CN(CC(=O)OCc1ccccc1)C2 (centres unmarked) [Compound 50] (H-FF[Ac6c]K-X26; configuration not given here),0.008 nM,,
"CC(C)CC(NC(=O)C(Cc1ccccc1)NC(=O)C(N)Cc1ccccc1)C(=O)NC(CCCCN)C(=O)N1CC2CN(CC(N)=O)CC2C1 (stereo not drawn) [Compound 17, H2N-Phe-Phe-Leu-Lys-Hpp-CONH2]",0.38 nM,,
CC(C)CC(NC(=O)C(Cc1ccccc1)NC(=O)C(N)Cc1ccccc1)C(=O)NC(CCCCN)C(=O)N1C2CC1CN(CC(=O)N(CC(=O)O)CC(=O)O)C2 (centres unmarked) [Compound 99],0.016 nM,,
NCCCCC(NC(=O)C1(NC(=O)C(Cc2ccccc2)NC(=O)C(N)Cc2ccccc2)CCCCC1)C(=O)N1C2CC1CN(CC(=O)O)C2 (centres unmarked) [Compound 41] (H-FF[Ac6c]K-X4; configuration not given here),0.015 nM,,
CC(C)CC(NC(=O)C(Cc1ccccc1)NC(=O)C(N)Cc1ccccc1)C(=O)NC(CCCCN)C(=O)N1C2CC1CN(C)C2 (centres unmarked) [Compound 33],0.009 nM,,
CC(C)CC(NC(=O)C(Cc1ccccc1)NC(=O)C(N)Cc1ccccc1)C(=O)NC(CCCCN)C(=O)N1CC2CNCC2C1 (centres unmarked) [Compound 13],,,1 mpk
CC(C)CC(NC(=O)C(Cc1ccccc1)NC(=O)C(N)Cc1ccccc1)C(=O)NC(CCCCN)C(=O)N1CC2=C(CN(C(=O)CO)C2)C1 (centres unmarked) [Compound 10],0.4 nM,,
CC(C)CC(NC(=O)C(Cc1ccccc1)NC(=O)C(N)Cc1ccccc1)C(=O)NC(CCCCN)C(=O)N1C2CC1CN(CC(N)=O)C2 (centres unmarked) [Compound 37],0.083 nM,< 0.1 nM,0.08 mpk
CC(C)CC(NC(=O)C(Cc1ccccc1)NC(=O)C(N)Cc1ccccc1)C(=O)NC(CCCCN)C(=O)N1C2CC1CN(C(=O)CN(CC(=O)O)CC(=O)O)C2 (centres unmarked) [Compound 102],0.012 nM,,
CC(C)CC(NC(=O)C(Cc1ccccc1)NC(=O)C(N)Cc1ccccc1)C(=O)NC(CCCCN)C(=O)N1C2CC1CN(CC(=O)NC(CCC(=O)O)C(=O)O)C2 (centres unmarked) [Compound 104] (H-FFLK[X9]E-OH; configuration not given here),,,0.07 mpk
CC(C)CC(NC(=O)C(Cc1ccccc1)NC(=O)C(C)(N)Cc1ccccc1)C(=O)NC(CCCCN)C(=O)N1CC2CC(C1)N2CC(=O)O (centres unmarked) [Compound 57],,,0.26 mpk
CC(C)CC(NC(=O)C(Cc1ccccc1)NC(=O)C(N)Cc1ccccc1)C(=O)NC(CCCCN)C(=O)N1C2CNCC1C2 (centres unmarked) [Compound 32],0.02 nM,,
NCCCCC(NC(=O)C1(NC(=O)C(Cc2ccccc2)NC(=O)C(N)Cc2ccccc2)CCCC1)C(=O)N1C2CC1CN(CC(=O)O)C2 (centres unmarked) [Compound 42] (H-FF[Ac5c]K-X4; configuration not given here),,,0.23 mpk
